pIC50: −log10 of the molar value. Converted amounts (≈) assume the structure as drawn.
What was measured:
Listeria monocytogenes = test: Antimicrobial susceptibility test (disc diffusion), Listeria monocytogenes; format: cell-based; details: dash = none; for Sensitive %: share of Listeria monocytogenes strains classed sensitive; for Resistant %: share of Listeria monocytogenes strains classed resistant
Method: (§1) Several bacterial colonies were transferred from the agar plates to bijoux containing MHB. The suspension is incubated at 35° C. and subsequently diluted down in sterile saline to match the density of a McFarland standard solution. A sterile cotton swab is then dipped in the bacterial inoculum and pressed against the bijou walls to remove any excess solution. MHA plates are then thoroughly streaked with the swab three times, turning the plate 60° each time. The discs are placed onto the inoculated plate within 15 minutes. The positions of the discs should allow enough space (≈24 mm) around each individual disc in order to measure the diffusion diameter at a later stage. The plates were incubated immediately at 35° C. for 16-18 hours for all organisms excluding VRE, and MRSA, which require a 24-hour incubation. The experiment was valid if there was a confluent bacterial growth, not single colonies, and circular inhibition zones were evident. Clear zones produced around the disc were measured with a ruler and interpreted according to the tables provided by the NCCLS. Bacteria were classified as sensitive, intermediate or resistant.

Streptococcus pyogenes = test: Antimicrobial susceptibility test (disc diffusion), Streptococcus pyogenes; format: cell-based; details: dash = none; for Sensitive %: share of Streptococcus pyogenes strains classed sensitive
Method: as §1

Streptococcus agalactiae = test: Antimicrobial susceptibility test (disc diffusion), Streptococcus agalactiae; format: cell-based; details: dash = none; for Resistant %: share of Streptococcus agalactiae strains classed resistant; for Sensitive %: share of Streptococcus agalactiae strains classed sensitive
Method: as §1

MRSA [1] = test: Antimicrobial susceptibility test (disc diffusion), MRSA; format: cell-based, methicillin resistant Staphylococcus aureus; details: for Resistant %: share of MRSA strains classed resistant; for Sensitive %: share of MRSA strains classed sensitive
Method: as §1

VRE = test: Antimicrobial susceptibility test (disc diffusion), VRE; format: cell-based, vancomycin resistant enterococci; details: dash = none; for Resistant %: share of VRE strains classed resistant; for Sensitive %: share of VRE strains classed sensitive
Method: as §1

MRSA [2] = details: literature values for comparison; cited from earlier work
[3] = test system: K562 human chronic myeloid leukaemia cells; details: value quoted for comparison; read-out: IC50 quoted in WO 93/18045; cited from earlier work

Molecule | Sensitive % (Listeria monocytogenes) | Resistant % (VRE) | Sensitive % (VRE) | Sensitive % (Streptococcus pyogenes) | Sensitive % (Streptococcus agalactiae) | other results
NCC[C@H](O)C(=O)N[C@@H]1C[C@H](N)[C@@H](O[C@H]2O[C@H](CN)[C@@H](O)[C@H](O)[C@H]2O)[C@H](O)[C@H]1O[C@H]1O[C@H](CO)[C@@H](O)[C@H](N)[C@H]1O [Amikacin] | 100% |  |  |  |  | Resistant % (Streptococcus pyogenes; share of Streptococcus pyogenes strains classed resistant): 100%; Resistant % (Streptococcus agalactiae): 100%
Gentamicin | 100% | 80% | 20% | 100% |  | Intermediate % (MRSA [1]; share of MRSA strains classed intermediate, dash = none): 8%; Resistant % (MRSA [1]; dash = none): 70%; Sensitive % (MRSA [1]; dash = none): 22%; Resistant % (Streptococcus agalactiae): 100%
COc1cc(Cc2cnc(N)nc2N)cc(OC)c1OC [Trimethophrim] | 100% | 75% | 25% | 100% | 100% | Resistant % (MRSA [1]; dash = none): 32%; Sensitive % (MRSA [1]; dash = none): 68%
CO[C@H]1/C=C/O[C@@]2(C)Oc3c(C)c(O)c4c(O)c(c(/C=N/N5CCN(C)CC5)c(O)c4c3C2=O)NC(=O)/C(C)=C\C=C\[C@H](C)[C@H](O)[C@@H](C)[C@@H](O)[C@@H](C)[C@H](OC(C)=O)[C@@H]1C [Rifampicin] | 100% |  |  | 100% | 100% | 
synercid |  |  |  |  |  | MIC in MRSA (MRSA [2]): ~0.5 µg/mL
CC[C@H]1OC(=O)[C@H](C)[C@@H](O[C@H]2C[C@@](C)(OC)[C@@H](O)[C@H](C)O2)[C@H](C)[C@@H](O[C@@H]2O[C@H](C)C[C@H](N(C)C)[C@H]2O)[C@](C)(O)C[C@@H](C)C(=O)[C@H](C)[C@@H](O)[C@]1(C)O [Erythromycin] | 100% | 90% | 10% | 100% | 100% | 
CN[C@H](CC(C)C)C(=O)N[C@H]1C(=O)N[C@@H](CC(N)=O)C(=O)N[C@H]2C(=O)N[C@H]3C(=O)N[C@H](C(=O)N[C@H](C(=O)O)c4cc(O)cc(O)c4-c4cc3ccc4O)[C@H](O)c3ccc(c(Cl)c3)Oc3cc2cc(c3O[C@@H]2O[C@H](CO)[C@@H](O)[C@H](O)[C@H]2O[C@H]2C[C@](C)(N)[C@H](O)[C@H](C)O2)Oc2ccc(cc2Cl)[C@H]1O [Vancomycin] | 100% | 100% |  | 100% | 100% | susceptibility of all MRSA strains used (MRSA [1]; in words, summary of Table 4): completely susceptible; MIC in MRSA (MRSA [2]): about 2 mg/L
CC(=O)NC[C@H]1CN(c2ccc(N3CCOCC3)c(F)c2)C(=O)O1 [linezolid] |  |  |  |  |  | MIC in MRSA (MRSA [2]): ~1 µg/mL (≈ 2.96 µM)
Cc1onc(-c2ccccc2)c1C(=O)N[C@@H]1C(=O)N2[C@@H]1SC(C)(C)[C@@H]2C(=O)O [Oxacillin] |  | 100% |  | 100% | 100% | Resistant % (Listeria monocytogenes): 100%
CC=C1C[C@H]2C=Nc3cc(OCCCOc4cc5c(cc4OC)C(=O)N4CC(=CC)C[C@H]4C=N5)c(OC)cc3C(=O)N2C1 [Example 6 in WO 93/18045] |  |  |  |  |  | pIC50 [3]: 8.00
CCC[C@@H]1C[C@@H](C(=O)N[C@@H]([C@H]2O[C@H](SC)[C@H](O)[C@@H](O)[C@H]2O)[C@H](C)Cl)N(C)C1 [Clindamycin] |  | 85% | 15% | 100% | 100% | Resistant % (Listeria monocytogenes): 100%
CN(C)[C@@H]1C(O)=C(C(N)=O)C(=O)[C@@]2(O)C(O)=C3C(=O)c4c(O)cccc4[C@@](C)(O)[C@H]3C[C@@H]12 [Tetracycline] | 100% | 60% | 40% | 100% | 10% | Resistant % (Streptococcus agalactiae): 90%

Reference: US7528126B2, “Pyrrolobenzodiazepines” (Spirogen Limited, priority 2004, dated 2009)
